What was measured:
[1] = tested on: human peripheral blood mononuclear cells (PBMC); experiment: PBMC cytotoxicity assay (CellTiter-Glo); assay type: cell-based; details: 2 days, pCC50
Protocol: (§1) Compounds of the present invention were tested via high-throughput cellular assays utilizing detection of kynurenine via mass spectrometry and cytotoxicity as end-points. For the mass spectrometry and cytotoxicity assays, human peripheral blood mononuclear cells (PBMC) (PB003F; AllCells®, Alameda, Calif.) were stimulated with human interferon-γ (IFN-γ) (Sigma-Aldrich Corporation, St. Louis, Mo.) and lipopolysaccharide from Salmonella minnesota (LPS) (Invivogen, San Diego, Calif.) to induce the expression of indoleamine 2, 3-dioxygenase (IDO1). Compounds with IDO1 inhibitory properties decreased the amount of kynurenine produced by the cells via the tryptophan catabolic pathway. Cellular toxicity due to the effect of compound treatment was measured using CellTiter-Glo® reagent (CTG) (Promega Corporation, Madison, Wis.), which is based on luminescent detection of ATP, an indicator of metabolically active cells.
(§2) In preparation for the assays, test compounds were serially diluted 3-fold in DMSO from a typical top concentration of 1 mM or 5 mM and plated at 0.5 μL in 384-well, polystyrene, clear bottom, tissue culture treated plates with lids (Greiner Bio-One, Kremsmünster, Austria) to generate 11-point dose response curves. Low control wells (0% kynurenine or 100% cytotoxicity) contained either 0.5 μL of DMSO in the presence of unstimulated (−IFN-γ/−LPS) PBMCs for the mass spectrometry assay or 0.5 μL of DMSO in the absence of cells for the cytotoxicity assay, and high control wells (100% kynurenine or 0% cytotoxicity) contained 0.5 μL of DMSO in the presence of stimulated (+IFN-γ/+LPS) PBMCs for both the mass spectrometry and cytotoxicity assays.
(§3) Frozen stocks of PBMCs were washed and recovered in RPMI 1640 medium (Thermo Fisher Scientific, Inc., Waltham, Mass.) supplemented with 10% v/v heat-inactivated fetal bovine serum (FBS) (Thermo Fisher Scientific, Inc., Waltham, Mass.), and 1× penicillin-streptomycin antibiotic solution (Thermo Fisher Scientific, Inc., Waltham, Mass.). The cells were diluted to 1,000,000 cells/mL in the supplemented RPMI 1640 medium. 50 μL of either the cell suspension, for the mass spectrometry assay, or medium alone, for the cytotoxicity assay, were added to the low control wells, on the previously prepared 384-well compound plates, resulting in 50,000 cells/well or 0 cells/well respectively. IFN-γ and LPS were added to the remaining cell suspension at final concentrations of 100 ng/ml and 50 ng/ml respectively, and 50 μL of the stimulated cells were added to all remaining wells on the 384-well compound plates. The plates, with lids, were then placed in a 37° C., 5% CO2 humidified incubator for 2 days.
(§4) Following incubation, the 384-well plates were removed from the incubator and allowed to equilibrate to room temperature for 30 minutes. For the cytotoxicity assay, CellTiter-Glo® was prepared according to the manufacturer's instructions, and 40 μL were added to each plate well. After a twenty minute incubation at room temperature, luminescence was read on an EnVision® Multilabel Reader (PerkinElmer Inc., Waltham, Mass.). For the mass spectrometry assay, 10 μL of supernatant from each well of the compound-treated plates were added to 40 μL of acetonitrile, containing 10 μM of an internal standard for normalization, in 384-well, polypropylene, V-bottom plates (Greiner Bio-One, Kremsmünster, Austria) to extract the organic analytes. Following centrifugation at 2000 rpm for 10 minutes, 10 μL from each well of the acetonitrile extraction plates were added to 90 μL of sterile, distilled H2O in 384-well, polypropylene, V-bottom plates for analysis of kynurenine and the internal standard on the RapidFire 300 (Agilent Technologies, Santa Clara, Calif.) and 4000 QTRAP MS (SCIEX, Framingham, Mass.). MS data were integrated using Agilent Technologies' RapidFire Integrator software, and data were normalized for analysis as a ratio of kynurenine to the internal standard. […]

[2] = target: indoleamine 2, 3-dioxygenase (IDO1) (Homo sapiens, UniProt P14902); experiment: IDO1 PBMC RapidFire MS assay (kynurenine detection by mass spectrometry); assay type: cell-based; set-up: to induce the expression of indoleamine 2, 3-dioxygenase (IDO1); host or cells: human PBMC stimulated with IFN-gamma and LPS; details: human PBMC stimulated with IFN-γ and LPS, 2 days, pIC50, read-out: PBMC PXC50 (converted)
Protocol: IDO1 PBMC RapidFire MS Assay
as §1, §2, §3, §4

Sequence of indoleamine 2, 3-dioxygenase (IDO1) (P14902 whole entry): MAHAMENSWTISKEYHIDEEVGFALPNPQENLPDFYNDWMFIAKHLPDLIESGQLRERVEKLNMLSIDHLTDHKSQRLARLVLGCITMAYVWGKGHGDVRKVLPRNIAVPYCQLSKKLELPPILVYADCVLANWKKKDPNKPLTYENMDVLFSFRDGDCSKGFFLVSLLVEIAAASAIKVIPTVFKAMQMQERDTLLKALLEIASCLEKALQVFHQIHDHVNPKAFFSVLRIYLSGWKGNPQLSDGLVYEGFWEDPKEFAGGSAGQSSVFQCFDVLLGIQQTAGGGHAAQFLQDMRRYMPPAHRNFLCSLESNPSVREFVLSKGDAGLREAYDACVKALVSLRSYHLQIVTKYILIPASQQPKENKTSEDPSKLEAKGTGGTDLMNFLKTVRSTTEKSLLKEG

| Structure (SMILES) | PBMC TOX PXC50 [1] | IC50 [2] |
| --- | --- | --- |
| CC(C)CN(c1c(F)cc([C@H](C)CC(=O)O)cc1Nc1ccc(Cl)cn1)C1CCOCC1 [Example 35, (R)-3-(3-((5-chloropyridin-2-yl)amino)-5-fluoro-4-(isobutyl(tetrahydro-2H-pyran-4-yl)amino)phenyl)butanoic Acid] | <5 | 0.501 nM |
| CC(C)CN(c1ccc([C@H](C)CC(=O)O)cc1Nc1ccc(C#N)nc1)C1CCOCC1 [Example 13, (R)-3-(3-((6-cyanopyridin-3-yl)amino)-4-(isobutyl(tetrahydro-2H-pyran-4-yl)amino)phenyl)butanoic Acid] | <5 | 1.26 nM |
| CC(C)CN(c1ccc([C@H](C)CC(=O)O)cc1Nc1n[nH]c(C#N)n1)[C@H]1CC[C@H](O)CC1 (racemic) [example 224, (3RS)-3-{3-[(5-cyano-1H-1,2,4-triazol-3-yl)amino]-4-[(2-methylpropyl)[(1rs&,4rs&)-4-hydroxycyclohexyl]amino]phenyl}butanoic acid] | <5 | 1580 nM |
| CC(C)CN(CC(C)C)c1ccc(C(C)CC(=O)O)cc1Nc1nnn(C(C)C)n1 (stereo not drawn) [example 250, 3-{4-[bis(2-methylpropyl)amino]-3-{[2-(propan-2-yl)-2H-1,2,3,4-tetrazol-5-yl]amino}phenyl}butanoic acid] | <5 | 1260 nM |
| CC(C)CN(c1ccc([C@H](C)CC(=O)O)cc1Nc1ccc(Cl)c(F)n1)C1CCOCC1 [Example 14, (R)-3-(3-((5-chloro-6-fluoropyridin-2-yl)amino)-4-(isobutyl(tetrahydro-2H-pyran-4-yl)amino)phenyl)butanoic acid] | <5 | 1.26 nM |
| CC(C)CN(c1ccc([C@H](C)CC(=O)O)cc1Nc1n[nH]c(C(F)(F)F)n1)C1CCCCC1 [Example 78, (R)-3-(4-(cyclohexyl(isobutyl)amino)-3-((5-(trifluoromethyl)-1H-1,2,4-triazol-3-yl)amino)phenyl)butanoic Acid] | <5 | 3.16 nM |
| CO[C@H]1CC[C@H](N(CC(C)C)c2ccc([C@H](C)CC(=O)O)cc2Nc2n[nH]c(C(F)(F)F)n2)CC1 [Example 52] | <5 | 10 nM |
| CC(C)CN(c1ccc([C@H](C)CC(=O)O)cc1Nc1n[nH]c(C(N)=O)n1)C1CCCCC1 [Example 84, (R)-3-(3-((5-carbamoyl-1H-1,2,4-triazol-3-yl)amino)-4-(cyclohexyl(isobutyl)amino)phenyl)butanoic Acid] | <5 | 7.94 nM |
| CC(C)CN(c1ccc([C@H](C)CC(=O)O)cc1Nc1nc(C(N)=O)c[nH]1)C1CCOCC1 [example 230, (3R)-3-{3-[(4-carbamoyl-1H-imidazol-2-yl)amino]-4-[(2-methylpropyl)(oxan-4-yl)amino]phenyl}butanoic acid] | <5 | 3160 nM |
| CC(C)CN(c1ccc([C@H](C)CC(=O)O)cc1Nc1nc(C(C)C)ns1)C1CCOCC1 [Example 26, (R)-3-(4-(isobutyl(tetrahydro-2H-pyran-4-yl)amino)-3-((3-isopropyl-1,2,4-thiadiazol-5-yl)amino)phenyl)butanoic Acid] | <5 | 3.16 nM |
| CC(C)CN(CC(C)C)c1ccc([C@H](C)CC(=O)O)cc1Nc1nc(C(F)(F)F)c[nH]1 [Example 85, (R)-3-(4-(diisobutylamino)-3-((4-(trifluoromethyI)-1H-imidazol-2-yl)amino)phenyl)butanoic Acid] | <5 | 2.51 nM |
| CC(C)CN(c1ccc([C@H](C)CC(=O)O)cc1Nc1n[nH]c(C(F)(F)F)n1)[C@H]1CC[C@@H](Br)CC1 [Example 93, (R)-3-(4-(((cis)-4-bromocyclohexyl) (isobutyl)amino)-3-((5-(trifluoromethyl)-1H-1,2,4-triazol-3-yl)amino)phenyl)butanoic Acid] | <5 | 1.26 nM |
| CO[C@H]1CC[C@H](N(CC(C)C)c2ccc([C@H](C)CC(=O)O)cc2Nc2ccc(Cl)cn2)CC1 [Example 55, (R)-3-(3-((5-chloropyridin-2-yl)amino)-4-(isobutyl((1r,4R)-4-methoxycyclohexyl)amino)phenyl)butanoic Acid] | <5 | 3.16 nM |
| CC(C)CN(CCCCCN)c1ccc([C@H](C)CC(=O)O)cc1Nc1nc(C(F)(F)F)ns1 [example 229, (3R)-3-{4-[(5-aminopentyl)(2-methylpropyl)amino]-3-{[3-(trifluoromethyl)-1,2,4-thiadiazol-5-yl]amino}phenyl}butanoic acid] | <5 | 50.1 nM |
| CNC(=O)c1c[nH]c(Nc2cc([C@H](C)CC(=O)O)ccc2N(CC(C)C)C2CCOCC2)n1 [example 232, (3R)-3-(3-{[4-(methylcarbamoyl)-1H-imidazol-2-yl]amino}-4-[(2-methylpropyl)(oxan-4-yl)amino]phenyl)butanoic acid] | <5 | 3160 nM |
| Cc1ccc(CC(=O)Nc2cc(-c3ccccc3C(=O)O)ccc2N(CC(C)C)C23CC(C2)C3)cc1 [example 268, 4′-({bicyclo[1.1.1]pentan-1-yl}(2-methylpropyl)amino)-3′-[2-(4-methylphenyl)acetamido]-[1,1′-biphenyl]-2-carboxylic acid] | <5 | 2000 nM |
| CC(C)CN(c1ccc([C@H](C)CC(=O)O)cc1Nc1ncn[nH]1)C1CCOCC1 [example 242, (3R)-3-{4-[(2-methylpropyl)(oxan-4-yl)amino]-3-[(1H-1,2,4-triazol-5-yl)amino]phenyl}butanoic acid] | <5 | 398 nM |
| CC(C)CN(CCCCCN=[N+]=[N-])c1ccc([C@H](C)CC(=O)O)cc1Nc1nc(C(F)(F)F)ns1 [Example 94, (R)-3-(4-((5-azidopentyl) (isobutyl)amino)-3-((3-(trifluoromethyl)-1,2,4-thiadiazol-5-yl)amino)phenyl)butanoic Acid] | <4.3 | 1.26 nM |
| CC(C)CN(c1ccc([C@H](C)Cc2nnn[nH]2)cc1Nc1nc(Cl)ns1)C1CCOCC1 [Example 100, (R)-4-(1-(1H-tetrazol-5-yl)propan-2-yl)-N^2-(3-chloro-1,2,4-thiadiazol-5-yl)-N^1-isobutyl-N^1-(tetrahydro-2H-pyran-4-yl)benzene-1,2-diamine] | <5 | 2 nM |
| CC(C)CN(c1ccc([C@H](C)CC(=O)O)cc1Nc1n[nH]c(C(F)(F)F)n1)C1CCOCC1 [Example 32, (R)-3-(4-(Isobutyl(tetrahydro-2H-pyran-4-yl)amino)-3-((5-(trifluoromethyl)-1H-1,2,4-triazol-3-yl)amino)phenyl)butanoic Acid] | <5 | 10 nM |
| COCc1nc(Nc2cc([C@H](C)CC(=O)O)ccc2N(CC(C)C)[C@H]2CC[C@@H](OC)CC2)n[nH]1 (racemic) [example 243, (3RS)-3-(3-{[5-(methoxymethyl)-1H-1,2,4-triazol-3-yl]amino}-4-[(2-methylpropyl)[(1rs&,4rs&)-4-methoxycyclohexyl]ami-no]phenyl)butanoic acid] | <5 | 31.6 nM |
